# Measured values: patent US9168301B2 (NATIONAL TSING HUA UNIVERSITY, priority 2011, dated 2015)
# Where two headings read alike, the source gives them in different places.
# How the values were obtained:
# [1] = Description: The serum biochemical parameters of the rats were monitored by drawing blood samples from the rats' tail veins once before the tumor implantation, and weekly after the tumor implantation. When a rat was sacrificed, a blood sample was also drawn from its heart. Whole blood was collected from a rat and held in a serum separation tube (Vacationer, Franklin Lakes, N.J., USA), then centrifuged for 15 minutes at 3000 rpm, followed by preserving the serum upper clean solution by freezing. Afterwards, the College of Veterinary Medicine of National Chung Hsing University was commissioned with the task of analyzing the serum biochemical parameters of this solution, in which a serum biochemical analyzer (Chiron Diagnostics Corporation, Oberlin, Ohio, USA) was utilized to analyze concentrations of the serum enzymes related to liver and kidney functions.
# [2] = test system: GS-9L, U-343MGa, HeLa, V79, and B16 cells; settings: cited from earlier work
# [3] = test system: N1-S1 rat hepatoma liver tumor
# Description: The implantation of tumor cells: before anesthesia, the SD rats were subcutaneously injected with 0.1 mg/kg bw of Atropine, so as to inhibit the secretion of respiratory tract and salivary gland caused by anesthetics, and prevent bradycardia resulted from the overactivity of vagus nerve. After administering Atropine for 10-15 minutes, the rats were intraperitoneally injected with 20-40 mg/kg bw of Zoletil 50 and 10 mg/kg bw of Xylazine to anesthetize and sedate the animals. After the anesthetia, the subxiphoid incision was done to allow for tumor implantation. A surgical area on the rat was shaved and disinfected with 75% alcohol and iodine, and then a 3-cm incision was made along the midline of thin layer; the muscle layer was elevated to make an opening smaller than the skin layer, and both sides of the rat's abdomen was gently pressed to reveal the liver. A 29 G syringe was loaded with the N1-S1 tumor cell suspension in advance, and then used to slowly inject the suspension into a hepatic lobe of the rat; each of the rats were injected with 6×10^6 cell/0.1 mL of the suspension. After the implantation, the peritoneum was stitched back with an absorbable suture, before using a nylon suture to stitch back the skin layer. The operated rats were then released back into the cage, and their activities and survival were continuously monitored.
# A commercial ultrasound scanner (TOSHIBA Xario) was used to scan the liver tumors, and a linear probe (PLT-1204BT) was used because it imparts better resolution; the frequency of the scanning was set at 14 MHz. After the anesthesia, the experimental animals were subjected to B-mode ultrasound imaging, so as to confirm whether the induction and growth of the tumors. […] Sagittal sections and transverse sections were obtained for the experimental animals before the BNCT treatment, and on the 10th, 30th, 60th, and 80th day after the BNCT treatment, in order to estimate the size of the tumors, and also combined Doppler mode with 3D imaging to evaluate the distribution of vasculature in the tumors, as well as the relative position of the tumors in the abdominal cavities.
# The experimental animals were divided into three groups; a normal group (which was made up of normal rats), a tumor comparison group (in which the rats received the implantation of tumor cells but not the BNCT treatment), and a BNCT treatment group; the BNCT treatment group was divided into subgroups of rats that received different physical doses of irradiation.
# The rats implanted with the N1-S1 tumor cells were subjected to the BNCT treatment on the 17th day after the implantation. […] At 15 minutes before the irradiation, the rats were injected with Atropine and Zoletil to allow for longer anesthesia. Each of the rats were placed on a fixing frame with its tumor-bearing area close to the beam aperture of the Tsing Hua Open-pool Reactor (THOR), and then different duration of neutron irradiation was performed under a specific neutron flux, in order to acquire a specific irradiation dose. After the irradiation, an on-line neutron monitoring system for the THOR was used to confirm the actual irradiation dose.
# The tumor was scanned by using a commercial ultrasound scanner (TOSHIBA Xario), and the scanning frequency was set at 14 MHz. […] Ultrasound imaging was used to track growths or disappearances of the tumors, as well as changes in the blood vessels surrounding the tumors within 80 days of the BNCT treatment. The 2D mode of ultrasound imaging was employed to confirm the status of a tumor, and sagittal and transverse sections were obtained to estimate the size of the tumor, and the Doppler mode was combined with 3D imaging to evaluate the distribution of vasculature in the tumor, as well as in surroundings thereof.
# [4] = 4 hours after the injection
# Description: Before measuring boron concentration of a sample, it needs to undergo microwave digestion first. A sample was initially placed into a Teflon high-pressure digestion vessel, then added with 3 mL of concentrated nitric acid (14N, 65%) and 0.5 mL of hydrogen peroxide (30-35%), and the vessel was sealed before placing the vessel into a microwave digestion system (MLS 1200 Milestone, Italia) for sample decomposition. […] The sample subsequently turned into a clear solution after complete digestion. After diluting the sample with deionized water, an Inductively Coupled Plasma Atomic Emission Spectrometer (ICP-AES, OPTIMA 2000 DV, PerkinElmer Instruments) was used to measure the boron concentration of the sample. For the conditions of the analysis, the temperature of argon plasma was set at 6000-7000 K; the analytical wavelength was set at 249.773 nm, and the liquid uptake rate was set at approximately 2 mL/min; the operating voltage after the formation of plasma was set at 40 V.
# [5] = injection dose 60 mg of 10B stable isotope per kilogram of human body weight; cited from earlier work
# [6] = liver tumor-bearing SD rats, 25 mg B/kg bw one-shot i.v., n = 12
# [7] = 4 days after the BNCT treatment
# [8] = G2, day −1 (before BNCT, baseline)
# [9] = G3, day −1 (before BNCT, baseline)
smiles,measurement,setting,value
OB(O)O [boric acid],histopathological section of the testis,[1]; [7],did not show any abnormalities
same,change of GPT after the BNCT treatment,[1]; BNCT treatment group,returned to normal
same,change in BUN (kidney function),"[1]; BNCT treatment group, one month after the BNCT treatment",did not show any meaningful changes
same,clinical signs after BNCT,[1]; BNCT treatment groups,slight diarrhea and appetite loss
same,lowest body weight relative to the initial weight,"[1]; G1 (11.18 Gy), 8 days after the irradiation",78%
same,"GOT (AST), serum","[1]; G1 (11.18 Gy), day −1 (before BNCT, baseline), normal 83-118",250 ± 148 U/L
same,"BUN, serum","[1]; G1, day 11 after BNCT",15 ± 7 mg/dL
same,"GOT (AST), serum","[1]; G1, day 11 after BNCT",202 ± 127 U/L
same,"GPT (ALT), serum","[1]; G1, day 11 after BNCT",39 ± 13 U/L
same,"BUN, serum","[1]; G1, day 30 after BNCT",14 ± 1 mg/dL
same,"GOT (AST), serum","[1]; G1, day 30 after BNCT",111 ± 29 U/L
same,"GPT (ALT), serum","[1]; G1, day 30 after BNCT",50 ± 5 U/L
same,"BUN, serum","[1]; G1, day 80 after BNCT",17 ± 3 mg/dL
same,"GOT (AST), serum","[1]; G1, day 80 after BNCT",127 ± 8 U/L
same,"GPT (ALT), serum","[1]; G1, day 80 after BNCT",54 ± 4 U/L
same,"BUN, serum","[1]; G1, day −1 (before BNCT, baseline), normal 11-17",16 ± 2 mg/dL
same,"GPT (ALT), serum","[1]; G1, day −1 (before BNCT, baseline), normal 35-47",54 ± 7 U/L
same,lowest body weight relative to the initial weight,"[1]; G2 (7.97 Gy), 4 days after the irradiation",89%
same,"GOT (AST), serum","[1]; G2 (7.97 Gy), day −1 (before BNCT, baseline)",271 ± 39 U/L
same,"BUN, serum","[1]; G2, day 11 after BNCT",13 ± 2 mg/dL
same,"GOT (AST), serum","[1]; G2, day 11 after BNCT",204 ± 9 U/L
same,"GPT (ALT), serum","[1]; G2, day 11 after BNCT",45 ± 15 U/L
same,"BUN, serum","[1]; G2, day 30 after BNCT",17 ± 5 mg/dL
same,"GOT (AST), serum","[1]; G2, day 30 after BNCT",144 ± 20 U/L
same,"GPT (ALT), serum","[1]; G2, day 30 after BNCT",57 ± 3 U/L
same,"BUN, serum","[1]; G2, day 80 after BNCT",16 ± 2 mg/dL
same,"GOT (AST), serum","[1]; G2, day 80 after BNCT",116 ± 8 U/L
same,"GPT (ALT), serum","[1]; G2, day 80 after BNCT",62 ± 13 U/L
same,"BUN, serum",[1]; [8],12 ± 1 mg/dL
same,"GPT (ALT), serum",[1]; [8],56 ± 9 U/L
same,lowest body weight relative to the initial weight,"[1]; G3 (5.61 Gy), 3 days after the irradiation",92%
same,"GOT (AST), serum","[1]; G3 (5.61 Gy), day −1 (before BNCT, baseline)",168 ± 19 U/L
same,"BUN, serum","[1]; G3, day 11 after BNCT",15 ± 3 mg/dL
same,"GOT (AST), serum","[1]; G3, day 11 after BNCT",180 ± 8 U/L
same,"GPT (ALT), serum","[1]; G3, day 11 after BNCT",53 ± 4 U/L
same,"BUN, serum","[1]; G3, day 30 after BNCT",14 ± 3 mg/dL
same,"GOT (AST), serum","[1]; G3, day 30 after BNCT",153 ± 3 U/L
same,"GPT (ALT), serum","[1]; G3, day 30 after BNCT",55 ± 6 U/L
same,"BUN, serum","[1]; G3, day 80 after BNCT",18 ± 3 mg/dL
same,"GOT (AST), serum","[1]; G3, day 80 after BNCT",133 ± 41 U/L
same,"GPT (ALT), serum","[1]; G3, day 80 after BNCT",58 ± 12 U/L
same,"BUN, serum",[1]; [9],13 ± 1 mg/dL
same,"GPT (ALT), serum",[1]; [9],50 ± 10 U/L
same,change of liver enzyme GOT after the BNCT treatment,[1]; all three subgroups of the BNCT treatment group,decreased rapidly
same,"radiation damage in pancreases and spleens, tissue histopathological sections",[1]; liver tumor-bearing rats after BNCT with 10B-boric acid,did not show radiation damage
same,radiation effect in the testis,"[1]; one month after the BNCT irradiation, degree related to irradiation dose",atrophy of seminiferous tubules
same,testis effect,[1]; only rats that received 11.18 Gy (G1),clear testicular atrophy
same,accumulation efficiency in the cells,[2]; previous studies,1
same,ratio of boron concentrations intracellularly and extracellularly,[2]; simple or passive diffusion,1
same,reduction of tumor size,[3]; 30th day after BNCT treatment,approximately 90%
same,"histopathology of tumor cells, high magnification",[3]; [7],"shrunk in size, become hollow, broken down and dead"
same,tumor shrinkage ratio (ultrasound),"[3]; G1 (11.18 Gy), 30 days after BNCT",0.94 ± 0.01
same,tumor shrinkage ratio (ultrasound),"[3]; G1 (11.18 Gy), 60 days after BNCT",0.94 ± 0.02
same,tumor shrinkage ratio (ultrasound),"[3]; G1 (11.18 Gy), 80 days after BNCT",0.95 ± 0.02
same,tumor shrinkage ratio (ultrasound),"[3]; G1 (tumor physical dose 11.18 Gy), boric acid 25 mg 10B/kg i.v., 11 days after BNCT, 0 = initial size, 1 = vanished",0.64 ± 0.07
same,distribution of blood flow surrounding the tumor (Doppler imaging),"[3]; G1, G2 and G3, 8th, 12th, 18th day after BNCT",gradually decreased until it could no longer be detected
same,tumor shrinkage ratio (ultrasound),"[3]; G2 (7.97 Gy), 30 days after BNCT",0.89 ± 0.05
same,tumor shrinkage ratio (ultrasound),"[3]; G2 (7.97 Gy), 60 days after BNCT",0.86 ± 0.07
same,tumor shrinkage ratio (ultrasound),"[3]; G2 (7.97 Gy), 80 days after BNCT",0.91 ± 0.05
same,tumor shrinkage ratio (ultrasound),"[3]; G2 (tumor physical dose 7.97 Gy), 11 days after BNCT",0.62 ± 0.1
same,tumor shrinkage ratio (ultrasound),"[3]; G3 (5.61 Gy), 30 days after BNCT",0.77 ± 0.06
same,tumor shrinkage ratio (ultrasound),"[3]; G3 (5.61 Gy), 60 days after BNCT",0.83 ± 0.08
same,tumor shrinkage ratio (ultrasound),"[3]; G3 (5.61 Gy), 80 days after BNCT",0.87 ± 0.04
same,tumor shrinkage ratio (ultrasound),"[3]; G3 (tumor physical dose 5.61 Gy), 11 days after BNCT",0.48 ± 0.42
same,liver cancer in the rats after BNCT with 10B-boric acid,[3]; liver tumor-bearing rats,completely disappeared
same,"smallest tumor, size relative to the original size",[3]; one month after the BNCT treatment,6%
same,tumor size relative to the original tumor size,"[3]; three subgroups G1-G3, one month after the BNCT treatment",less than or equal to 22%
same,new growth or recurrence of the tumors (ultrasound tracking),[3]; up to 80 days after the BNCT treatment,did not reveal any new growth or recurrence of the tumors
same,difference between the boron concentrations in the tumors and the normal liver cells,[4],insignificant
same,adverse effect of injected boric acid,[5],no permanent adverse effect
same,"Cmax, highest drug concentration in blood",[6],104.6 ± 36.23 ppm
